Among the data in US8497245B2, “Trypsin-like serine protease inhibitors, their preparation and use as selective inhibitors of the clotting factors IIa and Xa” (The Medicines Company (Leipzig) GmbH, priority 2010, dated 2013) are Ki values, retold here.

Common to all, as to type: biochemical
Test [1] concerns the target T1, human factor IIa (human alpha-thrombin) (Homo sapiens, UniProt P00734).
T1 construct: human alpha-thrombin from Enzyme Research Laboratories; purchased Enzyme Research Laboratories
As to the kind of experiment: Inhibition constants for human factor IIa, chromogenic substrate assay. Conditions: 25° C., Pefachrome tPA substrate, average of at least three determinations; read-out: Ki h FIIa. As for the experimental part:
(§1) The inhibitory effect against the individual purified enzymes was determined in analogy to a previously disclosed method (Stürzebecher et al., J. Med. Chem., 40, 3091-3099 (1997)).
(§2) 200 μL of TBS (0.05 M trishydroxymethylaminomethane; 0.154 M NaCl, 2% ethanol, pH 8.0)
(§3) The release of p-nitroaniline (p-NA, the chromogenic product of the proteolytic activity), was determined by change in absorbance at 405 nm. The equilibrium rates were used to calculate the inhibitor/enzyme dissociation constant (Ki values) by parameter fitting in accordance with the rate equation for competitive inhibition using GraFit (version 4 from Erithacus). The results are reported as Ki values (nanomolar) in table 7 and are the average of at least three determinations.

For test [2], the target named is T2, human Factor Xa (Homo sapiens, UniProt P00742).
T2 construct: human Factor Xa from Enzyme Research Laboratories; purchased Enzyme Research Laboratories
Nature of the test: Inhibition constants for human factor Xa, chromogenic substrate assay. Conditions: 25° C., Pefachrome FXa substrate, average of at least three determinations; read-out: Ki h FXa. As for the experimental part:
as §1, §2, §3

For test [3], the target named is T3, Human Activated Protein C (h aPC) (Homo sapiens, UniProt P04070).
T3 construct: purchased Enzyme Research Laboratories
As to the kind of experiment: Inhibition of human activated protein C (reference enzyme). Conditions: Pefachrome PCa substrate. As for the experimental part: as §1, §3
(§4) Dissociation constants were calculated as described herein.

The target of test [4] is T4, Human plasmin (h plasmin) (Homo sapiens, UniProt P00747).
T4 construct: purchased Calbiochem
As to the kind of experiment: Inhibition of human plasmin (reference enzyme). Conditions: Chromozym PL substrate. As for the experimental part:
as §1, §3, §4

Test [5] deals with T5, Human plasma kallikrein (h PK) (Homo sapiens, UniProt P03952).
T5 construct: purchased Enzyme Research Laboratories
Nature of the test: Inhibition of human plasma kallikrein (reference enzyme). As to conditions: S2302 substrate. As for the experimental part: as §1, §3, §4

Test [6] deals with T6, Human tissue-type plasminogen activator (h t-PA) (Homo sapiens, UniProt P00750).
T6 construct: purchased Boehringer Ingelheim Actilyse
As to the kind of experiment: Inhibition of human tissue-type plasminogen activator (reference enzyme). As to conditions: Pefachrome tPA substrate; read-out: Ki h t-PA. As for the experimental part: The equilibrium rates were used to calculate the inhibitor/enzyme dissociation constant (Ki values) by parameter fitting in accordance with the rate equation for competitive inhibition using GraFit (version 4 from Erithacus).
as §4

Test [7] concerns the target T7, Human urokinase type plasminogen activator (h u-PA) (Homo sapiens, UniProt P00749).
T7 construct: purchased MEDAC GmbH Urokinase HS medac
Nature of the test: Inhibition of human urokinase type plasminogen activator (reference enzyme). As to conditions: H-Glu-Gly-Arg-pNA substrate. As for the experimental part:
as §1, §3, §4

Test [8] deals with T8, Subcomponent "s" of Human Complement Component 1 (h C1s) (Homo sapiens, UniProt P09871).
T8 construct: purchased Calbiochem
T8 sequence (P09871 438-688 limits assumed): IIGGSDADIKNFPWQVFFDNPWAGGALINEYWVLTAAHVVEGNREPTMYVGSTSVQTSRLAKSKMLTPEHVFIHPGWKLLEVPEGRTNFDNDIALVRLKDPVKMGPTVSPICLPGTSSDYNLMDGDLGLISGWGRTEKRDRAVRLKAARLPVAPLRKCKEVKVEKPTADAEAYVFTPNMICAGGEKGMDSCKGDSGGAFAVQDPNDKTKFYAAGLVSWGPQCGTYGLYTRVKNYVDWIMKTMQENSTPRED
T8 sequence (P09871 16-437 partner limits assumed): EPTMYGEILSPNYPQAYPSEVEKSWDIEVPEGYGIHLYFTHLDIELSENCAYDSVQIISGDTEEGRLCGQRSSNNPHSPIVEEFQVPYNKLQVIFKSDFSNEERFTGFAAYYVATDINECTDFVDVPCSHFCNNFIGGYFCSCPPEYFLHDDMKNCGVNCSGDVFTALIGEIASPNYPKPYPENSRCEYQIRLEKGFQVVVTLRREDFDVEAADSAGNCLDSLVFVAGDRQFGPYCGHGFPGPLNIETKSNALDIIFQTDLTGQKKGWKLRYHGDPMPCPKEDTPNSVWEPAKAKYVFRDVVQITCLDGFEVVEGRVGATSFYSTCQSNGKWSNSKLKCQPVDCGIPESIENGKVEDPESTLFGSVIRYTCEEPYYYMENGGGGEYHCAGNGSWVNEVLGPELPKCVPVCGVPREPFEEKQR
As to the kind of experiment: Inhibition of human C1s (reference enzyme). As to conditions: S-2314 substrate; read-out: Ki h Cls. As for the experimental part:
as §1, §3, §4

In test [9] the target is T9, Subcomponent "r" of Human Complement Component 1 (h C1r) (Homo sapiens, UniProt P00736).
T9 construct: purchased Calbiochem
T9 sequence (P00736 464-705 limits assumed): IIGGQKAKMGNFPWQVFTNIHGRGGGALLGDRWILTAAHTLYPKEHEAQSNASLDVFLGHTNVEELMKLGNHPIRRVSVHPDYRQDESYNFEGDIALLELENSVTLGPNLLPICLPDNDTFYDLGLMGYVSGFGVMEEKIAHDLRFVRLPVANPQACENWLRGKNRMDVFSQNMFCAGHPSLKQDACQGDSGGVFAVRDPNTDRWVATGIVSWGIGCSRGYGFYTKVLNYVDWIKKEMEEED
T9 sequence (P00736 18-463 partner limits assumed): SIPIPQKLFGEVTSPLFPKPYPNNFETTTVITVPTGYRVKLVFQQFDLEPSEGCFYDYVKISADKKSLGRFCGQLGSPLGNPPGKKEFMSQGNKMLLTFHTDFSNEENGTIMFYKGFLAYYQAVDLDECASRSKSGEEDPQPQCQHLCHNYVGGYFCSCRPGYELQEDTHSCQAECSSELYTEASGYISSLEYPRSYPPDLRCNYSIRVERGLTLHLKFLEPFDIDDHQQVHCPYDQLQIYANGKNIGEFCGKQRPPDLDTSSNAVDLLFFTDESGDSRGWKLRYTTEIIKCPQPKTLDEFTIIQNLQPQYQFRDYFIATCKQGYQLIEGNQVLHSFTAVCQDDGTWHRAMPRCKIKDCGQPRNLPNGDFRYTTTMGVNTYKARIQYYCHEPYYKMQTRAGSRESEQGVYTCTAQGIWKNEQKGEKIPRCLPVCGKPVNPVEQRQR
Nature of the test: Inhibition of human C1r (reference enzyme). As to conditions: S-2314 substrate; read-out: Ki h Clr. As for the experimental part: as §1, §3, §4

The target in test [10] is T10, Human urinary kallikrein (h uKK) (Homo sapiens, UniProt P06870).
T10 construct: purchased Lee Biosolutions
Nature of the test: Inhibition of human urinary kallikrein (reference enzyme). Conditions: S-2266 substrate. As for the experimental part: as §1, §3, §4

T2 sequence (P00742 235-488 limits assumed): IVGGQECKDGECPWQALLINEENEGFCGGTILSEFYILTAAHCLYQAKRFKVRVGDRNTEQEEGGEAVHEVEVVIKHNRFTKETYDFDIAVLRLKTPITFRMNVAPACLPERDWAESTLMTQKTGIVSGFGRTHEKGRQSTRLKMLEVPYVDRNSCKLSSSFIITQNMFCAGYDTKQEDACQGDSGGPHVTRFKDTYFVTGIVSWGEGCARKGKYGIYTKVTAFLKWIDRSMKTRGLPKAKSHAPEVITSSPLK
T2 sequence (P00742 41-179 partner limits assumed): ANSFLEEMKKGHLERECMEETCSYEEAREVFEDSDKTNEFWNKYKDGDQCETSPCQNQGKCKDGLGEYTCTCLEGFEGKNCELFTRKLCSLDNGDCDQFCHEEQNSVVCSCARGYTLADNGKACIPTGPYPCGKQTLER
T5 sequence (P03952 391-638 limits assumed): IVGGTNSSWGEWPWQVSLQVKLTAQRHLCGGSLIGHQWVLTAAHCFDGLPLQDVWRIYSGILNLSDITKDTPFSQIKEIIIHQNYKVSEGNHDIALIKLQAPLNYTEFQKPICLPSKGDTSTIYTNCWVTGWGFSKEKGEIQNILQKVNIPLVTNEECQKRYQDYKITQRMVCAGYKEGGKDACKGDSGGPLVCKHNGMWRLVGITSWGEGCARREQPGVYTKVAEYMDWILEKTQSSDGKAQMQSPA
T5 sequence (P03952 20-390 partner limits assumed): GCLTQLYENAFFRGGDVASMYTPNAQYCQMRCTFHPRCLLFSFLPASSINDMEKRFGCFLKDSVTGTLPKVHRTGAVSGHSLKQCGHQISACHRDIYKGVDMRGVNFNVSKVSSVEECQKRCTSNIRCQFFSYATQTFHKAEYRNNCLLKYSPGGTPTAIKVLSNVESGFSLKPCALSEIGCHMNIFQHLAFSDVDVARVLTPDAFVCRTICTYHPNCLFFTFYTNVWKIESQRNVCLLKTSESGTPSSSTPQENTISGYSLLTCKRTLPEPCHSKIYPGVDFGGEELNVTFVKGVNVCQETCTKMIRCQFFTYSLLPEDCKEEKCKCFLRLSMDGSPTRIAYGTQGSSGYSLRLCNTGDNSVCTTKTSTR
T6 sequence (P00750 36-562): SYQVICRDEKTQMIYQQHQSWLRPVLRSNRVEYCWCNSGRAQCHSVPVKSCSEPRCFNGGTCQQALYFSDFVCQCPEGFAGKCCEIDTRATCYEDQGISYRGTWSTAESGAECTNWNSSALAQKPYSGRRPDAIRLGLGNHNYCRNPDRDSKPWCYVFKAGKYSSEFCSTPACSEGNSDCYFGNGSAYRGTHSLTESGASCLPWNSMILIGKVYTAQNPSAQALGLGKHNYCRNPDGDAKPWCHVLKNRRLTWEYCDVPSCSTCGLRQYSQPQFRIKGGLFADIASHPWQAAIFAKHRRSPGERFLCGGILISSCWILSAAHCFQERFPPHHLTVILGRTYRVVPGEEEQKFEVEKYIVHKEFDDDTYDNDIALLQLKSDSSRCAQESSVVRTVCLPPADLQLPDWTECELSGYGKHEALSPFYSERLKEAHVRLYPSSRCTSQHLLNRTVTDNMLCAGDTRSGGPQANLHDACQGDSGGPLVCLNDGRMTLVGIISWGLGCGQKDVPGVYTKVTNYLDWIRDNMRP
T10 sequence (P06870 25-262): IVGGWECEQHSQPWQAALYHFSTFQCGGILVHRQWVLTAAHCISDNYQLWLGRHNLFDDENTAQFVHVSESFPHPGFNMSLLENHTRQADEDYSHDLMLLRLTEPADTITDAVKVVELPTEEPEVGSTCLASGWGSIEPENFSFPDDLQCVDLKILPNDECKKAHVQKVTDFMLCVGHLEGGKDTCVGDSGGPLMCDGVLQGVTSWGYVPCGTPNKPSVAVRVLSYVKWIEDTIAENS
T3 sequence (P04070 212-450 limits assumed): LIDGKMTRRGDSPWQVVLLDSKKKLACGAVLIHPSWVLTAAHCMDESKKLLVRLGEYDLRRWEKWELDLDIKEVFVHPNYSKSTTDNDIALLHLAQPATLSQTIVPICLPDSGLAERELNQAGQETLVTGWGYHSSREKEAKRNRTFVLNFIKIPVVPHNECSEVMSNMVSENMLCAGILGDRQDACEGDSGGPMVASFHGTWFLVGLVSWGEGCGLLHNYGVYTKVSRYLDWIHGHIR
T3 sequence (P04070 43-197 partner limits assumed): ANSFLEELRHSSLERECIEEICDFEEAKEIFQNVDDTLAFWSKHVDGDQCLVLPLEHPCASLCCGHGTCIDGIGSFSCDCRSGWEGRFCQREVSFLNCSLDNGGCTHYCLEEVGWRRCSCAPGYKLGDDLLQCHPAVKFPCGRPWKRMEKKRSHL
T4 sequence (P00747 581-810 limits assumed): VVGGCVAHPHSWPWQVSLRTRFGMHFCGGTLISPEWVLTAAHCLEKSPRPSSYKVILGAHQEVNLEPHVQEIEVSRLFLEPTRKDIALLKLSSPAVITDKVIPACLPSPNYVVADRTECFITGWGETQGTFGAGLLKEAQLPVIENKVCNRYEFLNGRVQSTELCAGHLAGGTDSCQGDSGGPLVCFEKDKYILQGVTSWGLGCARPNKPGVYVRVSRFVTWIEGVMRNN
T4 sequence (P00747 97-580 partner limits assumed): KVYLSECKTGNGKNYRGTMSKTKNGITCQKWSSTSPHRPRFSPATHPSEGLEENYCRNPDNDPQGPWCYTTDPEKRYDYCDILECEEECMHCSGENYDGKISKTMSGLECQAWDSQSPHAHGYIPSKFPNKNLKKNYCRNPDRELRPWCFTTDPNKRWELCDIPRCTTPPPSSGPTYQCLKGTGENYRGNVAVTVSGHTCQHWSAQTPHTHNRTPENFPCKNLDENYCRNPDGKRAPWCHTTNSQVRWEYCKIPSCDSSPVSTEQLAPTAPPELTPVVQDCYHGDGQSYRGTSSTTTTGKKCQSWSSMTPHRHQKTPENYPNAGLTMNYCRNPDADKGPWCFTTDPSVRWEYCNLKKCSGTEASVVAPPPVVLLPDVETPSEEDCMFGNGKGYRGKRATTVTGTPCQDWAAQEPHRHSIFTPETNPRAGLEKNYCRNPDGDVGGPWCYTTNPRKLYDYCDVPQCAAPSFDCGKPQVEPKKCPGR

On to `NCc1ccc(Cl)cc1CNC(=O)[C@@H]1C[C@@H](N)CN1C(=O)[C@@H](CC(=O)N1CCNCC1)NS(=O)(=O)Cc1ccccc1` [Compound 2.5], for which the Ki in test [1] was 0.018 µM; in test [2], 2.8 nM; in [3], over 20 µM; in test [4], over 10 µM; in test [5], 0.639 µM; in test [6] it was 9.27 µM. The Ki is over 100 µM in test [7], over 20 µM in test [8], over 100 µM in test [9] and over 100 µM in [10].

Take `NCc1ccc(Cl)cc1CNC(=O)[C@@H]1C[C@H](N)CN1C(=O)[C@@H](CC(=O)N1CCCCC1)NS(=O)(=O)Cc1ccccc1` [Compound 2.6]: the Ki was 0.00018 µM in test [1]; 0.049 nM in test [2]; over 100 µM in test [3]; 8.75 µM in test [4]; 0.335 µM in test [5]; 5.05 µM in test [6]. In addition, the Ki in [7] is over 30 µM; in [8], over 20 µM; in test [9], over 20 µM; in test [10] it was over 50 µM.

With `NCc1ccc(Cl)cc1CNC(=O)[C@@H]1C[C@@H](N)CN1C(=O)[C@@H](CC(=O)N1CCCCC1)NS(=O)(=O)Cc1ccccc1` [Compound 2.7], the Ki was 0.00057 µM in [1]; 0.18 nM in test [2]; over 50 µM in [3]; 11.9 µM in test [4]; 0.322 µM in [5]; 15.3 µM in test [6]. Moreover, the Ki was over 50 µM in [7], over 30 µM in [8], over 20 µM in test [9] and over 50 µM in test [10].

On to `NCc1ccc(Cl)cc1CNC(=O)[C@@H]1CCCN1C(=O)[C@@H](CC(=O)N1CCCC1)NS(=O)(=O)Cc1ccccc1` [Compound 2.8], for which the Ki in test [1] is 0.00021 µM; in [2] it was 0.13 nM; in [3], over 40 µM; in test [4], over 20 µM; in test [5], 0.337 µM; in test [6], over 10 µM. Besides, the inhibition constant (Ki) in test [7] was over 80 µM; in [8] it was over 50 µM; in test [9], over 100 µM; in [10], over 100 µM.

Consider `NCc1ccc(Cl)cc1CNC(=O)[C@@H]1CCCN1C(=O)[C@@H](CC(=O)N1CC[C@@H](O)C1)NS(=O)(=O)Cc1ccccc1` [Compound 2.9], for which the Ki in test [1] is 0.0012 µM; in test [2], 2.5 nM; in [3], over 25 µM; in test [4], over 10 µM; in test [5] it was 0.93 µM; in test [6], over 20 µM. Further, the Ki is over 100 µM in test [7], over 50 µM in test [8], over 50 µM in test [9] and over 200 µM in test [10].

As to `NCc1ccc(Cl)cc1CNC(=O)[C@@H]1CCCN1C(=O)[C@@H](CC(=O)N1CC[C@H](O)C1)NS(=O)(=O)Cc1ccccc1` [Compound 2.10], the Ki in test [1] is 0.0009 µM; in [2], 1.1 nM; in [3] it was over 20 µM; in test [4] it was over 10 µM; in test [5], 0.83 µM; in test [6], over 10 µM. For the same molecule, the Ki in [7] was over 100 µM; in [8], over 20 µM; in test [9], over 20 µM; in test [10], over 100 µM.

As for `NCc1ccc(Cl)cc1CNC(=O)[C@@H]1CCCN1C(=O)[C@@H](CC(=O)N1CC[C@@H](N)C1)NS(=O)(=O)Cc1ccccc1` [Compound 2.11], the Ki in [1] is 0.0059 µM; in test [2], 14 nM; in test [3] it was over 50 µM; in [4], over 100 µM; in test [5], 3.35 µM; in [6], over 100 µM. Besides, the Ki in [7] was over 20 µM; in test [8], over 100 µM; in test [9], over 50 µM; in test [10], over 50 µM.

For the molecule `NCc1ccc(Cl)cc1CNC(=O)[C@@H]1CCCN1C(=O)[C@@H](CC(=O)N1CC[C@H](N)C1)NS(=O)(=O)Cc1ccccc1` [Compound 2.12], the Ki in test [1] is 0.0029 µM; in test [2], 14 nM; in test [3], over 25 µM; in test [4] it was over 25 µM; in test [5], 1.69 µM; in [6], over 100 µM. Further, the Ki in [7] was over 50 µM; in test [8] it was over 30 µM; in [9] it was over 100 µM; in [10], over 20 µM.

Regarding `NCc1ccc(Cl)cc1CNC(=O)[C@@H]1CNCCN1C(=O)[C@@H](CC(=O)N1CCCCC1)NS(=O)(=O)Cc1ccccc1` [Compound 2.13], the Ki in [1] is 0.0051 µM; in test [2], 1.4 nM; in test [3], over 30 µM; in test [4] it was over 100 µM; in [5] it was 8.56 µM; in [6], over 40 µM. Also, the Ki in [7] was over 100 µM; in [8], over 60 µM; in test [9] it was over 30 µM; in [10], over 20 µM.

With `NCc1ccc(Cl)cc1CNC(=O)[C@@H]1CCCCN1C(=O)[C@@H](CC(=O)N1CCOCC1)NS(=O)(=O)Cc1ccccc1` [Compound 2.14], the Ki was 0.0003 µM in test [1]; 8.3 nM in test [2]; over 20 µM in test [3]; over 50 µM in test [4]; 4.53 µM in [5]; over 50 µM in test [6]. Moreover, the Ki was over 50 µM in test [7], over 50 µM in test [8], over 50 µM in [9] and over 20 µM in test [10].

`NCc1ccc(Cl)cc1CNC(=O)[C@@H]1CCCCN1C(=O)[C@@H](CCC(=O)N1CCOCC1)NS(=O)(=O)Cc1ccccc1` [Compound 2.15]: the Ki in test [1] is 0.0007 µM; in test [2], 9.4 nM; in test [3] it was over 10 µM; in [4], over 5 µM; in test [5], 7.2 µM; in test [6] it was over 10 µM. Besides, the Ki was over 50 µM in test [7], over 50 µM in [8], over 20 µM in test [9] and over 10 µM in test [10].
